Results from patent US20230055705A1, “SUBSTITUTED THIOPHENE CARBOXAMIDES AND DERIVATIVES THEREOF” (Bayer Aktiengesellschaft, priority 2019, published 2023).

What was measured:
[1] = tested on: Peronospora parasitica; assay: In vivo preventive test on Peronospora parasitica (Crucifer downy mildew); details: Hyaloperonospora parasitica, in Brassica oleracea, 120 h, cabbage, evaluated 5 days after inoculation, read-out: efficacy; for pest or weed control at 31 ppm: 31 ppm of active ingredient; for pest or weed control at 125 ppm: 125 ppm of active ingredient; for pest or weed control at 500 ppm: 500 ppm of active ingredient
Procedure, shortened: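 Young cabbage plants were sprayed with compound in acetone/DMSO/Tween diluted with water, then inoculated 72 h later with a Peronospora parasitica spore suspension. Plants were kept 5 days at 20 °C and 100% RH. Efficacy was scored with 0% equal to solvent-treated controls and 100% meaning no disease.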

[2] = tested on: salicylate responsive promoter sequence of the PR1 (pathogenesis-related protein I) gene (AT2G14610); assay: Induction of defense gene expression in Arabidopsis thaliana (PR1 promoter-GFP reporter plants); assay type: in vivo; details: Arabidopsis thaliana, 72 h, 3rd day after spraying, mock treated leaves set as 1.00, read-out: relative fluorescence value; for fold induction at 75 ppm: 75 ppm of compound
Procedure, shortened: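 Transgenic A. thaliana carrying GFP under the salicylate-responsive PR1 promoter, grown five days, then sprayed with compounds. Whole-plant fluorescence imaged and quantified on day 3 post-spray, expressed relative to mock-treated leaf background set at 1.00.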

[3] = tested on: Colletotrichum lindemuthianum; assay: In vivo preventive test on Colletotrichum lindemuthianum (Antrachnose on bean); details: 144 h, inoculation 72 h after spraying, evaluated 6 days after inoculation, read-out: efficacy; for pest or weed control at 500 ppm: 500 ppm of active ingredient; for pest or weed control at 31 ppm: 31 ppm of active ingredient
Procedure, shortened: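 Young bean plants sprayed preventively with compound in acetone/DMSO/Tween diluted in water, then spore-inoculated 72 h later. Incubation 24 h at 20° C./100% RH, then 5 days at 20° C./90% RH; scored 6 days post-inoculation as % efficacy (0% = solvent-treated control, 100% = no disease).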

COC(=O)[C@H](CCCNC(=N)N)NC(=O)c1sc(Cl)c(Cl)c1Cl [I.008]
pest or weed control at 31 ppm [1]: 90 to 100% | pest or weed control at 125 ppm [1]: 90 to 100% | pest or weed control at 500 ppm [1]: 90 to 100% | fold induction at 75 ppm [2]: > 2 | fold induction at 300 ppm [2]: > 2

CCOC(=O)C(C#N)NC(=O)c1sc(Cl)c(Cl)c1Cl (centres unmarked) [I.009]
pest or weed control at 31 ppm [1]: 90 to 100% | pest or weed control at 125 ppm [1]: 90 to 100% | pest or weed control at 500 ppm [1]: 90 to 100% | fold induction at 75 ppm [2]: > 2 | fold induction at 300 ppm [2]: > 2 | pest or weed control at 500 ppm [3]: 90 to 100%

COC(=O)C(Cc1c[nH]cn1)NC(=O)c1sc(Cl)c(Cl)c1Cl (centres unmarked) [I.012]
pest or weed control at 31 ppm [1]: 70 to 79% | pest or weed control at 125 ppm [1]: 90 to 100% | pest or weed control at 500 ppm [1]: 90 to 100% | fold induction at 75 ppm [2]: > 2 | fold induction at 300 ppm [2]: > 2 | pest or weed control at 500 ppm [3]: 90 to 100%

COC(=O)[C@H](CC(N)=O)NC(=O)c1sc(Cl)c(Cl)c1Cl [I.015]
pest or weed control at 31 ppm [1]: 90 to 100% | pest or weed control at 125 ppm [1]: 90 to 100% | fold induction at 75 ppm [2]: > 2 | fold induction at 300 ppm [2]: > 2

COC(=O)C(CC(F)F)NC(=O)c1sc(Cl)c(Cl)c1Cl (centres unmarked) [I.016]
pest or weed control at 31 ppm [1]: 90 to 100% | pest or weed control at 125 ppm [1]: 90 to 100% | pest or weed control at 500 ppm [1]: 90 to 100% | fold induction at 75 ppm [2]: > 2 | fold induction at 300 ppm [2]: > 2 | pest or weed control at 31 ppm [3]: 80 to 89% | pest or weed control at 500 ppm [3]: 90 to 100%

O=C(O)CNC(=S)c1sc(Cl)c(Cl)c1Cl [I.022, N-[(3,4,5-trichloro-2-thienyl)carbonothioyl]glycine]
pest or weed control at 31 ppm [1]: 90 to 100% | pest or weed control at 125 ppm [1]: 90 to 100% | pest or weed control at 500 ppm [1]: 90 to 100% | fold induction at 75 ppm [2]: > 2 | pest or weed control at 31 ppm [3]: 70 to 79% | pest or weed control at 500 ppm [3]: 90 to 100%

COC(=O)CNC(=S)c1sc(Cl)c(Cl)c1Cl [I.038, methyl N-[(3,4,5-trichloro-2-thienyl)carbonothioyl]glycinate]
pest or weed control at 31 ppm [1]: 90 to 100% | pest or weed control at 125 ppm [1]: 90 to 100% | pest or weed control at 500 ppm [1]: 90 to 100% | fold induction at 300 ppm [2]: > 2 | pest or weed control at 31 ppm [3]: 90 to 100% | pest or weed control at 500 ppm [3]: 90 to 100%

CCOC(=O)C(CC(N)=O)NC(=O)c1sc(Cl)c(Cl)c1Cl (centres unmarked) [I.046]
pest or weed control at 31 ppm [1]: 90 to 100% | pest or weed control at 125 ppm [1]: 90 to 100% | pest or weed control at 500 ppm [1]: 90 to 100% | fold induction at 75 ppm [2]: > 2 | fold induction at 300 ppm [2]: > 2 | pest or weed control at 31 ppm [3]: 80 to 89% | pest or weed control at 500 ppm [3]: 90 to 100%

CCOC(=O)C(CC(F)(F)F)NC(=O)c1sc(Cl)c(Cl)c1Cl (centres unmarked) [I.048]
pest or weed control at 31 ppm [1]: 90 to 100% | pest or weed control at 125 ppm [1]: 90 to 100% | pest or weed control at 500 ppm [1]: 90 to 100% | fold induction at 75 ppm [2]: > 2 | fold induction at 300 ppm [2]: > 2 | pest or weed control at 500 ppm [3]: 80 to 89%

C[C@H](NC(=S)c1sc(Cl)c(Cl)c1Cl)C(=O)O [I.113]
pest or weed control at 31 ppm [1]: 80 to 89% | pest or weed control at 125 ppm [1]: 90 to 100% | pest or weed control at 500 ppm [1]: 90 to 100% | fold induction at 75 ppm [2]: > 2 | fold induction at 300 ppm [2]: > 2 | pest or weed control at 500 ppm [3]: 90 to 100%

C[C@H](NC(=O)c1sc(Cl)c(Cl)c1Cl)C(N)=O [I.119]
pest or weed control at 31 ppm [1]: 90 to 100% | pest or weed control at 125 ppm [1]: 90 to 100% | fold induction at 75 ppm [2]: > 2 | fold induction at 300 ppm [2]: > 2 | pest or weed control at 31 ppm [3]: 70 to 79% | pest or weed control at 500 ppm [3]: 90 to 100%

COC(=O)[C@H](CSC(=O)N(C)C)NC(=O)c1sc(Cl)c(Cl)c1Cl [I.142]
pest or weed control at 31 ppm [1]: 90 to 100% | pest or weed control at 125 ppm [1]: 90 to 100% | fold induction at 75 ppm [2]: > 2 | fold induction at 300 ppm [2]: > 2 | pest or weed control at 31 ppm [3]: 80 to 89%

CCOC(=O)C(CSC)NC(=O)c1sc(Cl)c(Cl)c1Cl (centres unmarked) [I.143]
pest or weed control at 31 ppm [1]: 90 to 100% | pest or weed control at 125 ppm [1]: 90 to 100% | fold induction at 75 ppm [2]: > 2 | fold induction at 300 ppm [2]: > 2 | pest or weed control at 31 ppm [3]: 70 to 79%

COC(=O)C[C@H](NC(=O)c1sc(Cl)c(Cl)c1Cl)C(=O)OC [I.144]
pest or weed control at 31 ppm [1]: 90 to 100% | pest or weed control at 125 ppm [1]: 90 to 100% | fold induction at 75 ppm [2]: > 2 | fold induction at 300 ppm [2]: > 2 | pest or weed control at 31 ppm [3]: 80 to 89%
